Source: the NIST ThermoML archive (doi:10.1016/j.fluid.2013.12.022)

Experiment: refractive index (other wavelength) (dimensionless); xn = mol fraction of the nth substance listed
Settings: 85 kPa, Liquid, Wavelength=632.8 nm, minimum deviation angle technique

CCCO [propan-1-ol] + CCCCCCCC[n+]1ccn(C)c1.F[P-](F)(F)(F)(F)F
x2 = 0
Settings | refractive index
298.19 K | 1.3818
300.2 K | 1.381
302.19 K | 1.3802
304.2 K | 1.3793
306.22 K | 1.3785
308.24 K | 1.3777
310.25 K | 1.3769
312.24 K | 1.376

CC(C)(C)O [2-methylpropan-2-ol] + CCCCCCCC[n+]1ccn(C)c1.F[P-](F)(F)(F)(F)F
x2 = 0
Settings | refractive index
309.16 K | 1.3775
312.05 K | 1.3759
315.18 K | 1.3742
318.15 K | 1.3725
321.11 K | 1.3708
324.42 K | 1.3689

CCCCCCCC[n+]1ccn(C)c1.F[P-](F)(F)(F)(F)F [1-octyl-3-methylimidazolium hexafluorophosphate] + CCCO
Settings | refractive index
298.19 K, x1 = 1 | 1.4215
300.2 K, x1 = 1 | 1.421
302.19 K, x1 = 1 | 1.4204
304.2 K, x1 = 1 | 1.4199
305.17 K, x1 = 0.3 | 1.4047
305.17 K, x1 = 0.5 | 1.4114
305.21 K, x1 = 0.6 | 1.4137
305.22 K, x1 = 0.801 | 1.4171
305.23 K, x1 = 0.698 | 1.4154
305.26 K, x1 = 0.899 | 1.4184
305.27 K, x1 = 0.399 | 1.4084
306.18 K, x1 = 0.6 | 1.4134
306.19 K, x1 = 0.5 | 1.4111
306.2 K, x1 = 0.3 | 1.4044
306.2 K, x1 = 0.399 | 1.4081
306.2 K, x1 = 0.801 | 1.4168
306.22 K, x1 = 1 | 1.4193
306.23 K, x1 = 0.698 | 1.4151
306.25 K, x1 = 0.899 | 1.4181
307.19 K, x1 = 0.3 | 1.404
307.19 K, x1 = 0.801 | 1.4165
307.21 K, x1 = 0.399 | 1.4078
307.21 K, x1 = 0.6 | 1.4131
307.24 K, x1 = 0.698 | 1.4148
307.24 K, x1 = 0.899 | 1.4178
307.29 K, x1 = 0.2 | 1.3986
307.35 K, x1 = 0.5 | 1.4108
308.19 K, x1 = 0.5 | 1.4105
308.2 K, x1 = 0.3 | 1.4037
308.21 K, x1 = 0.801 | 1.4162
308.23 K, x1 = 0.899 | 1.4175
308.24 K, x1 = 0.698 | 1.4146
308.24 K, x1 = 1 | 1.4188
308.25 K, x1 = 0.399 | 1.4075
308.26 K, x1 = 0.2 | 1.3983
308.27 K, x1 = 0.6 | 1.4128
308.32 K, x1 = 0.1 | 1.3904
309.18 K, x1 = 0.399 | 1.4072
309.19 K, x1 = 0.3 | 1.4034
309.19 K, x1 = 0.5 | 1.4102
309.21 K, x1 = 0.6 | 1.4125
309.21 K, x1 = 0.899 | 1.4173
309.22 K, x1 = 0.698 | 1.4143
309.23 K, x1 = 0.1 | 1.3901
309.23 K, x1 = 0.801 | 1.416
309.28 K, x1 = 0.2 | 1.3979
310.11 K, x1 = 0.3 | 1.4031
310.19 K, x1 = 0.6 | 1.4122
310.2 K, x1 = 0.5 | 1.4099
310.21 K, x1 = 0.899 | 1.417
310.23 K, x1 = 0.1 | 1.3897
310.23 K, x1 = 0.698 | 1.414
310.25 K, x1 = 0.801 | 1.4157
310.25 K, x1 = 1 | 1.4183
310.26 K, x1 = 0.2 | 1.3976
310.29 K, x1 = 0.399 | 1.4069
311.2 K, x1 = 0.6 | 1.4119
311.2 K, x1 = 0.801 | 1.4154
311.2 K, x1 = 0.899 | 1.4167
311.21 K, x1 = 0.3 | 1.4027
311.21 K, x1 = 0.399 | 1.4066
311.22 K, x1 = 0.5 | 1.4096
311.24 K, x1 = 0.1 | 1.3893
311.25 K, x1 = 0.2 | 1.3973
311.25 K, x1 = 0.698 | 1.4138
312.17 K, x1 = 0.3 | 1.4024
312.17 K, x1 = 0.399 | 1.4063
312.19 K, x1 = 0.6 | 1.4116
312.19 K, x1 = 0.698 | 1.4135
312.2 K, x1 = 0.2 | 1.397
312.2 K, x1 = 0.5 | 1.4093
312.2 K, x1 = 0.801 | 1.4151
312.2 K, x1 = 0.899 | 1.4164
312.24 K, x1 = 1 | 1.4178
312.26 K, x1 = 0.1 | 1.3889
313.24 K, x1 = 0.1 | 1.3886
313.24 K, x1 = 0.2 | 1.3966

CCCCCCCC[n+]1ccn(C)c1.F[P-](F)(F)(F)(F)F [1-octyl-3-methylimidazolium hexafluorophosphate] + CC(C)(C)O
Settings | refractive index
312.06 K, x1 = 1 | 1.4179
314.47 K, x1 = 1 | 1.4173
316.92 K, x1 = 1 | 1.4166
317.23 K, x1 = 0.699 | 1.4113
317.35 K, x1 = 0.803 | 1.4134
317.36 K, x1 = 0.991 | 1.4149
317.38 K, x1 = 0.398 | 1.4034
319.13 K, x1 = 0.5 | 1.4064
319.2 K, x1 = 1 | 1.416
319.25 K, x1 = 0.699 | 1.4107
319.26 K, x1 = 0.803 | 1.4129
319.3 K, x1 = 0.991 | 1.4144
319.31 K, x1 = 0.398 | 1.4028
319.63 K, x1 = 0.601 | 1.4088
320.77 K, x1 = 0.5 | 1.4059
321.17 K, x1 = 0.1 | 1.3834
321.28 K, x1 = 0.991 | 1.4139
321.32 K, x1 = 1 | 1.4155
321.34 K, x1 = 0.803 | 1.4124
321.37 K, x1 = 0.2 | 1.3919
321.38 K, x1 = 0.299 | 1.3978
321.4 K, x1 = 0.699 | 1.4102
321.46 K, x1 = 0.398 | 1.4021
321.58 K, x1 = 0.601 | 1.4083
322.42 K, x1 = 0.5 | 1.4054
322.78 K, x1 = 0.299 | 1.3972
322.79 K, x1 = 0.2 | 1.3912
322.97 K, x1 = 0.1 | 1.3826
323.23 K, x1 = 0.991 | 1.4134
323.3 K, x1 = 1 | 1.4149
323.32 K, x1 = 0.699 | 1.4097
323.32 K, x1 = 0.803 | 1.4118
323.79 K, x1 = 0.601 | 1.4077
323.84 K, x1 = 0.398 | 1.4013
324.07 K, x1 = 0.5 | 1.4049
324.29 K, x1 = 0.2 | 1.3906
324.29 K, x1 = 0.299 | 1.3967
324.43 K, x1 = 0.1 | 1.3819
325 K, x1 = 0.601 | 1.4073
325.29 K, x1 = 0.991 | 1.4128
325.3 K, x1 = 0.699 | 1.4093
325.35 K, x1 = 0.803 | 1.4113
325.38 K, x1 = 1 | 1.4143
325.78 K, x1 = 0.398 | 1.4007
325.81 K, x1 = 0.299 | 1.3963
325.82 K, x1 = 0.1 | 1.3814
325.92 K, x1 = 0.5 | 1.4043
325.95 K, x1 = 0.2 | 1.39
327.11 K, x1 = 0.699 | 1.4088
327.12 K, x1 = 0.803 | 1.4108
327.13 K, x1 = 0.601 | 1.4066
327.36 K, x1 = 0.2 | 1.3894
327.4 K, x1 = 0.991 | 1.4123
327.41 K, x1 = 1 | 1.4138
327.47 K, x1 = 0.299 | 1.3957
327.72 K, x1 = 0.398 | 1.4
327.74 K, x1 = 0.5 | 1.4037
327.97 K, x1 = 0.1 | 1.3804
328.85 K, x1 = 0.601 | 1.4061
329.18 K, x1 = 0.1 | 1.3797
329.18 K, x1 = 0.2 | 1.3887
329.26 K, x1 = 0.299 | 1.3951
